Activity calls are given as the source filed them. The calls are words filed in the database; no cut-off is given here.
Legend:
[1] = tested on: Jurkat; assay: Antiproliferative activity against Jurkat T cells as measured by [3H]thymidine incorporation; assay type: functional, cell-based; conditions: Homo sapiens
[2] = tested on: HUVEC; assay: Cell cycle arrest at S phase in HUVEC at 1 uM in presence of 50 uM guanosine; assay type: functional, Homo sapiens
[3] = tested on: HUVEC; assay: Antiproliferative activity against HUVEC in presence of 20 uM guanine as measured by [3H]thymidine incorporation; assay type: functional, cell-based; conditions: Homo sapiens
[4] = tested on: HUVEC; assay: Cell cycle arrest at G2/M phase in HUVEC at 1 uM in presence of 50 uM guanosine; assay type: functional, Homo sapiens
[5] = tested on: Mus musculus; assay: Antiangiogenic activity in mouse at 60 mg/kg/day, sc; assay type: functional; conditions: route subcutaneous
[6] = species: Mus musculus; assay: Inhibition of tumor-induced angiogenesis in RENCA mouse model; assay type: functional, organism-based
[7] = tested on: HUVEC; assay: Cell cycle arrest at G1 phase in HUVEC at 1 uM; assay type: functional; conditions: Homo sapiens
[8] = tested on: HUVEC; assay: Cell cycle arrest at G1 phase in HUVEC at 1 uM in presence of 50 uM guanosine; assay type: functional, Homo sapiens
[9] = tested on: HUVEC; assay: Cell cycle arrest at G2/M phase in HUVEC at 1 uM; assay type: functional; conditions: Homo sapiens
[10] = tested on: HUVEC; assay: Cell cycle arrest at S phase in HUVEC at 1 uM; assay type: functional; conditions: Homo sapiens
[11] = tested on: Jurkat; assay: Antiproliferative activity against Jurkat T cells in presence of 20 uM guanine as measured by [3H]thymidine incorporation; assay type: functional, cell-based; conditions: Homo sapiens
[12] = tested on: HUVEC; assay: Antiproliferative activity against HUVEC as measured by [3H]thymidine incorporation; assay type: functional, cell-based; conditions: Homo sapiens

With `COc1c(C)c2c(c(O)c1C/C=C(\C)CCC(=O)O)C(=O)OC2` [MYCOPHENOLIC ACID] the IC50 [1] was 128 nM, the Inhibition [2] was 11.8% and the Activity [3] was “inactive”. For the same compound, the Inhibition [4] was 17%, the inhibition in vivo at 60 mg/kg/day [5] was 69% and the inhibition [6] was “Dose-dependent effect”. For the same compound, the inhibition at 1 µM [7] was 81%, the Inhibition [8] was 71% and the inhibition at 1 µM [9] was 12.4%. For the same compound, the inhibition at 1 µM [10] was 6.5%, the Activity [11] was “inactive” and the IC50 [12] was 99.2 nM.
